Results as given in ChEMBL document CHEMBL4304804, “Synthesis and biological evaluation of calycanthaceous alkaloid analogs” (Bioorg Med Chem, 2019).
Converted amounts (≈) assume the structure as drawn. The source made the active and inactive calls. The rule behind the calls is not given here.

Tests used:
Verticillium dahliae = experiment: Antifungal activity against Verticillium dahliae assessed as reduction in fungal cell growth incubated for 48 hrs by serial dilution method; format: functional
Ralstonia solanacearum [1] = experiment: Antibacterial activity against Ralstonia solanacearum assessed as reduction in bacterial cell growth incubated for 24 hrs by filter paper assay; format: functional
Cytospora = experiment: Antifungal activity against Cytospora juglandis assessed as reduction in fungal cell growth incubated for 48 hrs by serial dilution method; format: functional
Candida tropicalis = experiment: Antifungal activity against Candida tropicalis assessed as reduction in fungal cell growth incubated for 48 hrs by serial dilution method; format: functional
Curvularia lunata [2] = experiment: Antifungal activity against Curvularia lunata assessed as reduction in fungal cell growth incubated for 48 hrs by serial dilution method; format: functional
Staphylococcus aureus = experiment: Antibacterial activity against Staphylococcus aureus assessed as reduction in bacterial cell growth incubated for 24 hrs by filter paper assay; format: functional
Escherichia coli = experiment: Antibacterial activity against Escherichia coli assessed as reduction in bacterial cell growth incubated for 24 hrs by filter paper assay; format: functional
Acetylcholinesterase = Acetylcholinesterase (Electrophorus electricus, UniProt O42275); experiment: Inhibition of electric eel AChE by Ellman's colorimetry
[3] = test system: Fusarium oxysporum f. sp. vasinfectum; experiment: Antifungal activity against Fusarium oxysporum sp. vasinfectum assessed as reduction in fungal cell growth incubated for 48 hrs by serial dilution method; format: functional
Bacillus cereus = experiment: Antibacterial activity against Bacillus cereus assessed as reduction in bacterial cell growth incubated for 24 hrs by filter paper assay; format: functional
Penicillium citrinum = experiment: Antifungal activity against Penicillium citrinum assessed as reduction in fungal cell growth incubated for 48 hrs by serial dilution method; format: functional
Cryptococcus neoformans = experiment: Antifungal activity against Cryptococcus neoformans assessed as reduction in fungal cell growth incubated for 48 hrs by serial dilution method; format: functional
Pseudomonas aeruginosa = experiment: Antibacterial activity against Pseudomonas aeruginosa assessed as reduction in bacterial cell growth incubated for 24 hrs by filter paper assay; format: functional
Fusarium oxysporum = experiment: Antifungal activity against Fusarium oxysporum assessed as reduction in fungal cell growth incubated for 48 hrs by serial dilution method; format: functional
Aspergillus flavus = experiment: Antifungal activity against Aspergillus flavus assessed as reduction in fungal cell growth incubated for 48 hrs by serial dilution method; format: functional
Candida [4] = experiment: Antifungal activity against […] assessed as reduction in fungal cell growth incubated for 48 hrs by serial dilution method; format: functional
[5] = test system: Colletotrichum orbiculare; experiment: Antifungal activity against Colletotrichum orbiculare assessed as reduction in fungal cell growth incubated for 48 hrs by serial dilution method; format: functional
Aspergillus niger = experiment: Antifungal activity against Aspergillus niger assessed as reduction in fungal cell growth incubated for 48 hrs by serial dilution method; format: functional
[6] = target: Acetylcholinesterase (Electrophorus electricus) (UniProt O42275); experiment: Inhibition of electric eel AChE by at 1 mg/ml Ellman's colorimetry relative to control
Ralstonia solanacearum [7] = experiment: Antibacterial activity against Ralstonia solanacearum assessed as reduction in bacterial cell growth at 500 ug/ml incubated for 24 hrs by filter paper assay relative to control; format: functional
Curvularia lunata [8] = experiment: Antifungal activity against Curvularia lunata assessed as reduction in fungal cell growth at 62.5 ug/ml incubated for 48 hrs by serial dilution method relative to control; format: functional
Curvularia lunata [9] = experiment: Antifungal activity against Curvularia lunata assessed as reduction in fungal spore germination at 125 ug/ml relative to control; format: functional
Curvularia lunata [10] = experiment: Antifungal activity against Curvularia lunata assessed as reduction in fungal spore germination at 250 ug/ml relative to control; format: functional
Curvularia lunata [11] = experiment: Antifungal activity against Curvularia lunata assessed as reduction in fungal cell growth at 125 ug/ml incubated for 48 hrs by serial dilution method relative to control; format: functional
Curvularia lunata [12] = experiment: Antifungal activity against Curvularia lunata assessed as reduction in fungal cell growth at 250 ug/ml incubated for 48 hrs by serial dilution method relative to control; format: functional
Candida [13] = experiment: Antifungal activity against […] assessed as reduction in fungal spore germination at 500 ug/ml relative to control; format: functional

Acetylcholinesterase, sequence (O42275 whole entry): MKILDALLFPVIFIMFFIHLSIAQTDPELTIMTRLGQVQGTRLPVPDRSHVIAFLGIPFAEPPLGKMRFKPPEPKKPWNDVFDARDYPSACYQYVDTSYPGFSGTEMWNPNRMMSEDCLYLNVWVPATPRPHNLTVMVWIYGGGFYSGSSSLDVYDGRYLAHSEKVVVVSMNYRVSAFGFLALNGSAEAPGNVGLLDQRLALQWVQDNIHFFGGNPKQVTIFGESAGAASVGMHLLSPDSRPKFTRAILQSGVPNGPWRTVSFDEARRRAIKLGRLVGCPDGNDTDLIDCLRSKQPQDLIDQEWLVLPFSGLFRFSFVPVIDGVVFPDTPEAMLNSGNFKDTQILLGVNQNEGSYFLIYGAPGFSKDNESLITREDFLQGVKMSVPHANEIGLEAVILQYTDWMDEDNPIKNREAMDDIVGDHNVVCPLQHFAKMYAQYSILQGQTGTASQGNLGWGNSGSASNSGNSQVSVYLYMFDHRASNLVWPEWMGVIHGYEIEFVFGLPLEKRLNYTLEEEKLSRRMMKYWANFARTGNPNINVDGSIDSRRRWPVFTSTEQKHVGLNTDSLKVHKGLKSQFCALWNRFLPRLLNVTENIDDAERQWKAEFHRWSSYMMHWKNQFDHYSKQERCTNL
Acetylcholinesterase (Electrophorus electricus), sequence (O42275 24-633 limits assumed): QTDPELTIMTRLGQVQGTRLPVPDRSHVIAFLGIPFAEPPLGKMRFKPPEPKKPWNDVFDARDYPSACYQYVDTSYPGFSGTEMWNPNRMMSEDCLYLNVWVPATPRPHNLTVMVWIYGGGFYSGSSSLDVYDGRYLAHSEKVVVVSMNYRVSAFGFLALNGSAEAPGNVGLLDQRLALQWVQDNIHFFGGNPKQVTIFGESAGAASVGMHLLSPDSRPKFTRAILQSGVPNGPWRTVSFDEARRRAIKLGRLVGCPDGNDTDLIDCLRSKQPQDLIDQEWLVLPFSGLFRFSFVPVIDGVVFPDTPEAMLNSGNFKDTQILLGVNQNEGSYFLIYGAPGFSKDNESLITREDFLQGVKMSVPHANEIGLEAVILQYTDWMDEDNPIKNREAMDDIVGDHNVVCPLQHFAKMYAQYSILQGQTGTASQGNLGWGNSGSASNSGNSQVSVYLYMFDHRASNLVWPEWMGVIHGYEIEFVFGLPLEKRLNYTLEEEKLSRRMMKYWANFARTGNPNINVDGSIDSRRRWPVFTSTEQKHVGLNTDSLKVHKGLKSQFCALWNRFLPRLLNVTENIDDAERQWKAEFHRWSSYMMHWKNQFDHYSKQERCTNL

Structure (SMILES): CCCCCC(=O)N1CCCC2(O)c3ccccc3N(C)C12 (stereo not drawn)
- MIC (Verticillium dahliae): 125 µg/mL (≈ 413 µM)
- MIC (Ralstonia solanacearum [1]): 125 µg/mL (≈ 413 µM)
- MIC (Cytospora): 125 µg/mL (≈ 413 µM)
- MIC (Candida tropicalis): inactive
- MIC (Curvularia lunata [2]): 250 µg/mL (≈ 827 µM)
- MIC (Staphylococcus aureus): 125 µg/mL (≈ 413 µM)
- MIC (Escherichia coli): 250 µg/mL (≈ 827 µM)
- IC50 (Acetylcholinesterase): 7.57 µM
- MIC [3]: 250 µg/mL (≈ 827 µM)
- MIC (Bacillus cereus): inactive
- MIC (Penicillium citrinum): inactive
- MIC (Cryptococcus neoformans): 250 µg/mL (≈ 827 µM)
- MIC (Pseudomonas aeruginosa): 250 µg/mL (≈ 827 µM)
- MIC (Fusarium oxysporum): 250 µg/mL (≈ 827 µM)
- MIC (Aspergillus flavus): inactive
- MIC (Candida [4]): inactive
- MIC [5]: 250 µg/mL (≈ 827 µM)
- MIC (Aspergillus niger): 250 µg/mL (≈ 827 µM)
- inhibition [6]: > 80%

Structure (SMILES): CCCCCCCC(=O)N1CCCC2(O)c3ccccc3N(C)C12 (stereo not drawn)
- MIC (Verticillium dahliae): 62.5 µg/mL (≈ 189 µM)
- MIC (Ralstonia solanacearum [1]): 31.2 µg/mL (≈ 94.6 µM)
- MIC (Cytospora): 125 µg/mL (≈ 378 µM)
- MIC (Candida tropicalis): inactive
- MIC (Curvularia lunata [2]): 125 µg/mL (≈ 378 µM)
- MIC (Staphylococcus aureus): 62.5 µg/mL (≈ 189 µM)
- MIC (Escherichia coli): 62.5 µg/mL (≈ 189 µM)
- IC50 (Acetylcholinesterase): 0.363 µM
- inhibition at 500 µg/mL (Ralstonia solanacearum [7]): 100%
- MIC [3]: 250 µg/mL (≈ 756 µM)
- MIC (Bacillus cereus): 250 µg/mL (≈ 756 µM)
- MIC (Penicillium citrinum): inactive
- MIC (Cryptococcus neoformans): 125 µg/mL (≈ 378 µM)
- MIC (Pseudomonas aeruginosa): 250 µg/mL (≈ 756 µM)
- MIC (Fusarium oxysporum): inactive
- MIC (Aspergillus flavus): 125 µg/mL (≈ 378 µM)
- MIC (Candida [4]): inactive
- MIC [5]: 250 µg/mL (≈ 756 µM)
- MIC (Aspergillus niger): 250 µg/mL (≈ 756 µM)

Structure (SMILES): CCCCCCC(=O)N1CCCC2(O)c3ccccc3N(C)C12 (stereo not drawn)
- MIC (Verticillium dahliae): 62.5 µg/mL (≈ 198 µM)
- MIC (Ralstonia solanacearum [1]): 62.5 µg/mL (≈ 198 µM)
- MIC (Cytospora): 125 µg/mL (≈ 395 µM)
- inhibition at 62.5 µg/mL (Curvularia lunata [8]): 15.5%
- MIC (Candida tropicalis): 250 µg/mL (≈ 790 µM)
- MIC (Curvularia lunata [2]): 62.5 µg/mL (≈ 198 µM)
- MIC (Staphylococcus aureus): 62.5 µg/mL (≈ 198 µM)
- inhibition at 125 µg/mL (Curvularia lunata [9]): 76.2%
- MIC (Escherichia coli): 125 µg/mL (≈ 395 µM)
- IC50 (Acetylcholinesterase): 4.2 µM
- MIC [3]: 250 µg/mL (≈ 790 µM)
- MIC (Bacillus cereus): 250 µg/mL (≈ 790 µM)
- MIC (Penicillium citrinum): inactive
- inhibition at 250 µg/mL (Curvularia lunata [10]): 43.7%
- MIC (Cryptococcus neoformans): 125 µg/mL (≈ 395 µM)
- inhibition at 125 µg/mL (Curvularia lunata [11]): 31.3%
- MIC (Pseudomonas aeruginosa): 250 µg/mL (≈ 790 µM)
- MIC (Fusarium oxysporum): 250 µg/mL (≈ 790 µM)
- MIC (Aspergillus flavus): inactive
- MIC (Candida [4]): inactive
- MIC [5]: 250 µg/mL (≈ 790 µM)
- MIC (Aspergillus niger): 250 µg/mL (≈ 790 µM)
- inhibition at 250 µg/mL (Curvularia lunata [12]): 77.7%

Structure (SMILES): Cc1cccc(CN2c3ccccc3C3(Cc4cccc(C)c4)CCN(S(=O)(=O)c4ccccc4)C23)c1 (stereo not drawn)
- MIC (Verticillium dahliae): 31.2 µg/mL (≈ 61.4 µM)
- MIC (Ralstonia solanacearum [1]): inactive
- MIC (Cytospora): 250 µg/mL (≈ 491 µM)
- MIC (Candida tropicalis): 125 µg/mL (≈ 246 µM)
- MIC (Curvularia lunata [2]): inactive
- MIC (Staphylococcus aureus): inactive
- MIC (Escherichia coli): 250 µg/mL (≈ 491 µM)
- IC50 (Acetylcholinesterase): 2.81 µM
- MIC [3]: 250 µg/mL (≈ 491 µM)
- MIC (Bacillus cereus): 125 µg/mL (≈ 246 µM)
- MIC (Penicillium citrinum): inactive
- MIC (Cryptococcus neoformans): inactive
- MIC (Pseudomonas aeruginosa): 125 µg/mL (≈ 246 µM)
- MIC (Fusarium oxysporum): 250 µg/mL (≈ 491 µM)
- MIC (Aspergillus flavus): 250 µg/mL (≈ 491 µM)
- MIC (Candida [4]): 250 µg/mL (≈ 491 µM)
- MIC [5]: 250 µg/mL (≈ 491 µM)
- MIC (Aspergillus niger): 250 µg/mL (≈ 491 µM)
- inhibition [6]: > 80%

Structure (SMILES): CCCCCCCC(=O)N1CCC2(Cc3cccc(C)c3)c3ccccc3N(Cc3cccc(C)c3)C12 (stereo not drawn)
- MIC (Verticillium dahliae): 62.5 µg/mL (≈ 126 µM)
- MIC (Ralstonia solanacearum [1]): 62.5 µg/mL (≈ 126 µM)
- MIC (Cytospora): 125 µg/mL (≈ 253 µM)
- MIC (Candida tropicalis): 125 µg/mL (≈ 253 µM)
- MIC (Curvularia lunata [2]): 125 µg/mL (≈ 253 µM)
- MIC (Staphylococcus aureus): 125 µg/mL (≈ 253 µM)
- MIC (Escherichia coli): 250 µg/mL (≈ 505 µM)
- IC50 (Acetylcholinesterase): 87.9 µM
- MIC [3]: 250 µg/mL (≈ 505 µM)
- MIC (Bacillus cereus): 62.5 µg/mL (≈ 126 µM)
- MIC (Penicillium citrinum): 250 µg/mL (≈ 505 µM)
- MIC (Cryptococcus neoformans): 125 µg/mL (≈ 253 µM)
- MIC (Pseudomonas aeruginosa): 125 µg/mL (≈ 253 µM)
- MIC (Fusarium oxysporum): 125 µg/mL (≈ 253 µM)
- MIC (Aspergillus flavus): 250 µg/mL (≈ 505 µM)
- inhibition at 500 µg/mL (Candida [13]): 87.5%
- MIC (Candida [4]): 31.2 µg/mL (≈ 63.2 µM)
- MIC [5]: 250 µg/mL (≈ 505 µM)
- MIC (Aspergillus niger): 250 µg/mL (≈ 505 µM)

Structure (SMILES): Cc1ccc(C(=O)N2CCCC3(O)c4ccccc4N(C)C23)cc1 (stereo not drawn)
- MIC (Verticillium dahliae): 250 µg/mL (≈ 775 µM)
- MIC (Ralstonia solanacearum [1]): inactive
- MIC (Cytospora): inactive
- MIC (Candida tropicalis): inactive
- MIC (Curvularia lunata [2]): inactive
- MIC (Staphylococcus aureus): inactive
- MIC (Escherichia coli): inactive
- IC50 (Acetylcholinesterase): 2.85 µM
- MIC [3]: inactive
- MIC (Bacillus cereus): inactive
- MIC (Penicillium citrinum): inactive
- MIC (Cryptococcus neoformans): inactive
- MIC (Pseudomonas aeruginosa): 250 µg/mL (≈ 775 µM)
- MIC (Fusarium oxysporum): inactive
- MIC (Aspergillus flavus): inactive
- MIC (Candida [4]): inactive
- MIC [5]: inactive
- MIC (Aspergillus niger): inactive
- inhibition [6]: > 80%
